Here are results for one substance from patent US20260091086A1, “POLYPEPTIDE COMBINATIONS AND USES THEREOF” (MEDIMMUNE LIMITED, priority 2024, published 2026).

Numbered stars: 1 amine (or outer) side, 2 acyl side, 3 side chain; on linkers, the order of the positions; unused ones are H or OH. Bridge positions count the residues as written; N and C are the ends. Square brackets hold non-standard residues; d marks the D form. Side chains are listed from the residue outwards. Ends that are not written are not given here. * marks the point of attachment. C18 diacid = O=C(O)CCCCCCCCCCCCCCCCC(=O)*; γGlu = O=C(O)[C@H](CCC(=O)[*:2])N[*:1]; αMeF = C[C@](N)(Cc1ccccc1)C(=O)O

For experiment [1], the target named is T1, rat amylin receptor (calcitonin receptor plus RAMP3) (Rattus norvegicus, UniProt P32214+Q9JJ73).
T1 construct: expressed in transfected cells; host or cells: HEK293
T1 sequence (P32214 25-516): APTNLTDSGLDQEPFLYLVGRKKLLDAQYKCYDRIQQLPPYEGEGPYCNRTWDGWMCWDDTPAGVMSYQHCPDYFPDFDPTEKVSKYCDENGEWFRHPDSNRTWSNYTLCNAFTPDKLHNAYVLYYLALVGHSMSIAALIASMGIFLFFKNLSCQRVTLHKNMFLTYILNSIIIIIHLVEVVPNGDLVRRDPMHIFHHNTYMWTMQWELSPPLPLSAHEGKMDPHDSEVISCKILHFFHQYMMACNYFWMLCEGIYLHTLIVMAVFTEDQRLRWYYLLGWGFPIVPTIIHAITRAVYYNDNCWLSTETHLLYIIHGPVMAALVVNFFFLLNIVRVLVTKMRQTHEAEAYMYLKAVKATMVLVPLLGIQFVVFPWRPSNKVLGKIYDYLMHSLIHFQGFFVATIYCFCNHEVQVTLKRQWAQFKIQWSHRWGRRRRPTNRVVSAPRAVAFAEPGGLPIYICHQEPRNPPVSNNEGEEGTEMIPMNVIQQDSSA
T1 sequence (Q9JJ73 23-147 partner): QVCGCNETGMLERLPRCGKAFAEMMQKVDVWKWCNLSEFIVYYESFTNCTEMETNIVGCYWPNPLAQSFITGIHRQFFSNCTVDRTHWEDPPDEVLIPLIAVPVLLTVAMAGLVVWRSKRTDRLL
In words: Target engagement estimate (unbound Cmax / unbound in vitro potency), amylin receptor. Particulars: LAA 30 nmol/kg vs DACRA 10 nmol/kg. The procedure:
Target engagement was estimated in the following way for each compound. The maximum concentration (Cmax) after subcutaneous injection was measured in separate rat pharmacokinetic studies and was dose-adjusted to the tested dose levels when appropriate, assuming dose linearity. Plasma protein binding was determined in vitro using 3B Pharmaceutical's Escalate Equilibrium Shift Assay or an in-house Surface Plasmon Resonance (SPR) assay. Peptide in vitro potency was determined via HTRF CAMP accumulation assay using HEK293 cells recombinantly expressing the rat calcitonin receptor or rat amylin receptor (calcitonin receptor plus RAMP3) in saline buffer containing 0.1% bovine serum albumin. The in vitro potencies (IC50s) for amylin and calcitonin were adjusted to unbound values by taking into account the albumin concentration in the assay and fraction unbound data, according to an established method (Wan H and Bergström F (2007), High Throughput Screening of Drug-Protein Binding in Drug Discovery, Journal of Liquid Chromatography & Related Technologies, 30:5, 681-700; doi: 10.1080/10826070701190989). Finally, the target engagement was calculated as the unbound Cmax divided by the unbound IC50, both for amylin and calcitonin. […] Uncertainty of parameter estimates was determined by bootstrapping, sampling single measurements randomly with replacement within each experiment (N=500). […]

Experiment [2] has as its system DIO Sprague-Dawley rats. In words: Example 6: treatment switch / add-on study after GLP-1RA lead-in. Format: in vivo, rat. As to conditions: for body weight change, % of day 0 body weight: day 30. How it is done:
Study Design: Male DIO Sprague-Dawley rats were fed a high-fat diet (32.5% kcal fat, D12266B; Research Diets) for approximately 8 weeks prior to study start. Rats were dosed SC for 15 days with Vehicle (n=16) or GLP-1RA (n=32) (5 nmol/kg) once-daily (QD). Beginning on day 16 rats initially treated with Vehicle either continued with Vehicle (n=8) or were switched to LAA (7.5 nmol/kg, n=8) administration. Rats initially receiving GLP-1RA treatment either continued with GLP-1RA, were switched to LAA (7.5 nmol/kg), were switched to Vehicle, or continued with GLP-1RA with addition of LAA treatment (7.5 nmol/kg) for duration of study (day 30), with n=8/group. Body weight was measured daily through-out study. Data reported as mean±standard error of the mean (SEM); data analysis performed using GraphPad Prism In this experiment, the LAA was that of SEQ ID NO: 11, and the GLP-1R agonist was semaglutide.

For experiment [3], the system named is DIO male pair-housed rats. In words: Example 3 additional study: 28-day body weight, food intake and organ weights in DIO rats. Format: in vivo, rat. Particulars: 28 days SC daily. The procedure:
Study design: DIO male pair-housed rats fed a 32.5% high-fat diet (D12266B) for 7 weeks reached a mean body weight (BW) of ˜595 g. Rats were dosed SC daily for 28 days with vehicle (Vh), GLP-1/GCG dual agonist (1.5 or 5 nmol/kg), LAA (2.5 or 7.5 nmol/kg), or combination (1.5+2.5 nmol/kg, 1.5+7.5 nmol/kg, 5+2.5 nmol/kg, or 5+7.5 nmol/kg, respectively). Food intake (FI) and BW were measured daily. In chow fed lean rats, gastric emptying (GE) was measured via X-ray fluoroscopic quantification following SC injections of Vh, GLP-1/GCG dual agonist at 1, 3, or 10 nmol/kg or LAA at 1, 3, or 10 nmol/kg. In a subsequent acute GE study, lean rats received a single dose of Vh, GLP-1/GCG dual agonist (2 nmol/kg), LAA (2 nmol/kg) or GLP-1/GCG dual agonist+LAA combination (2+2 nmol/kg). In this experiment, the LAA was that of SEQ ID NO: 11, and the GLP-1/GCG dual-agonist was cotadutide.

Experiment [4] concerns DIO Sprague-Dawley rats. In words: Example 6 Study 2: 4-week LAA, GLP-1RA or both. Particulars: QD SC 4 weeks; LAA 7.5 nmol/kg, GLP-1RA 5 nmol/kg, or both; FIG. 5H. Format: in vivo, rat. How it is done: Study 2 Design: Male DIO Sprague-Dawley rats were injected QD SC with either vehicle, LAA 7.5 nmol/kg, GLP-1RA 5 nmol/kg, or both, for 4 weeks. Monotherapy doses were selected to achieve matching BW loss. BW and food intake were measured daily, and body composition was measured at baseline and end of study.

Where [5] appears, read: end of study, after initial GLP-1RA: GLP-1RA continued, switched to LAA, or Combination.

As for “K(γE-γE-C18diacid)[CNTATC]ATQRLANFLRHSSNN(αMePhe)GPILPPTEVGSNTY-amide (K([γGlu-γGlu-C18 diacid])CNTATCATQRLANFLRHSSNN[αMeF]GPILPPTEVGSNTY-NH2; disulfide 2-7) [LAA]”, the “amylin receptor engagement, fold more than DACRA” value in experiment [1] is given as ~28 fold. In addition, the “total lean mass at the end of the study” value with DIO Sprague-Dawley rats [2] (FIG. 5E) was “trend towards the animals switching to LAA therapy preserving the most lean mass”. Besides, the “fasting leptin levels at the end of the study” value in the experiment on DIO Sprague-Dawley rats [2] (compared to discontinuing therapy at day 15, FIG. 5F) is “significantly reduced”. The “body weight change, % of day 0 body weight” value was −3.4% with DIO Sprague-Dawley rats [2] (switched from GLP-1RA to LAA 7.5 nmol/kg on day 16) and “+1.1%” in the experiment on DIO Sprague-Dawley rats [2] (switched from Vehicle to LAA 7.5 nmol/kg on day 16). Also, the Fat in the experiment on DIO Sprague-Dawley rats [2] (setting [5]) is on record as 103.70 g. Moreover, the “Fat, Δ from Control” value in the experiment with DIO Sprague-Dawley rats [2] (setting [5]) was found to be 41.95 g. Moreover, the “change in body weight normalized to Vehicle” value was −12% in the experiment on DIO Sprague-Dawley rats [2] (end of study, switched from GLP-1RA to LAA) and −7.1% in the experiment on DIO Sprague-Dawley rats [2] (end of study, switched from VH to LAA). The “Fat, Δ from Vehicle” value in the experiment on DIO Sprague-Dawley rats [2] (end of study, vs group switched from GLP-1RA to Vehicle) turned out to be 27.21 g. In addition, the results for the “Vh corrected BW change (BW gain)” value in experiment [3] (LAA 2.5 nmol/kg) and in experiment [3] (LAA 7.5 nmol/kg) were −9.4% and −13.7%, respectively. Further, the “Cumulative FI normalized to Vh” value in experiment [3] (monotherapy and combination groups) is “decreased in a dose-dependent manner”. Moreover, the “fat mass change from baseline” value in the experiment on DIO Sprague-Dawley rats [4] was “greater loss of fat mass than GLP-1RA monotherapy”.
